Source: article PMC11984388, “A brain-accessible peptide modulates stroke inflammatory response and neurotoxicity by targeting BDNF-receptor TrkB-T1 specific interactome” (Theranostics, 2025)
Residues, ends and D or L forms follow the SMILES beside them. *: point of attachment. Biotin = O=C1N[C@H]2[C@H](CS[C@H]2CCCCC(=O)*)N1

Assay: Peptide detection in brain cortex after photothrombotic ischemia
Type: in vivo
Settings: 3 nmol/g i.v. 1 h after damage, male and female mice sacrificed 5 h post-stroke; Fluorescein Avidin D (Fig 5C)
Protocol: Vehicle (saline), Bio-TMyc or Bio-TT1Ct (3 nmol/g) were retro-orbitally injected in mice one hour after induction of photothrombotic damage or, alternatively, undamaged animals. In the first case, animals were sacrificed 5 h after damage induction while, the second group was sacrificed 30 min after peptide administration. The details of brain fixation and cryoprotection for peptide visualization and/or immunohistochemistry are provided in the Supplementary material. […]
Finally, the sa mple s were mounted in Prolong Diamond. The images were acquired using an inverted Zeiss LSM 710 laser confocal microscope (Jena, Germany) with a 40x or 63x Plan-Apochromatic oil immersion objective. Images corre spond to single se ctions and were normalized for eac h colour se para tely and process ed for presenta tion with ImageJ (NIH Image) and Fiji.
Peptide visualization and immunohistochemis tr y in brain cortex
For peptide visua liz ation in undamaged or damaged brains, animals were deeply anes thetized and intra cardially perfus ed with cold PBS and 4% paraformalde hyde in PBS. Brains were post-fixed in the sa m e fixative at 4°C for 24 h and cryoprote cted in 30% suc ros e for 48 h at 4°C. […]

For CC[C@H](C)[C@H](NC(=O)[C@H](CC(C)C)NC(=O)[C@H](CCCCN)NC(=O)[C@H](CCC(N)=O)NC(=O)[C@H](CCC(=O)O)NC(=O)[C@H](CCC(=O)O)NC(=O)[C@H](C)NC(=O)[C@H](CCCNC(=N)N)NC(=O)[C@H](CCCNC(=N)N)NC(=O)[C@H](CCCNC(=N)N)NC(=O)[C@H](CCC(N)=O)NC(=O)[C@H](CCCNC(=N)N)NC(=O)[C@H](CCCNC(=N)N)NC(=O)[C@H](CCCCN)NC(=O)[C@H](CCCCN)NC(=O)[C@H](CCCNC(=N)N)NC(=O)CNC(=O)[C@H](Cc1ccc(O)cc1)NC(=O)CCCC[C@@H]1SC[C@@H]2NC(=O)N[C@@H]21)C(=O)N[C@@H](CO)C(=O)N[C@@H](CCC(=O)O)C(=O)N[C@@H](CCC(=O)O)C(=O)N[C@@H](CC(=O)O)C(=O)N[C@@H](CC(C)C)C(=O)N[C@@H](CC(C)C)C(=O)N[C@@H](CCCNC(=N)N)C(N)=O [Bio-TMyc, reference compound] (Biotin-YGRKKRRQRRRAEEQKLISEEDLLR-NH2), the “Time of peptide detection in brain cortex after administration” value was “at least 4 h”.
